Data on one compound can be found in paper PMC13252604, “First Generation Proteolysis Targeting Chimeras (PROTACs) for the Treatment of Progeria” (Advanced Science, 2026).

The experiment addresses T1, progerin (Mus musculus, UniProt P48678, DEL608-657).
T1 construct: endogenous in cells; host or cells: immortalized (SV40-LT) fibroblasts from Lmna G609G/G609G mice
T1 sequence (P48678 with tags, fused parts or gaps DEL608-657 limits assumed): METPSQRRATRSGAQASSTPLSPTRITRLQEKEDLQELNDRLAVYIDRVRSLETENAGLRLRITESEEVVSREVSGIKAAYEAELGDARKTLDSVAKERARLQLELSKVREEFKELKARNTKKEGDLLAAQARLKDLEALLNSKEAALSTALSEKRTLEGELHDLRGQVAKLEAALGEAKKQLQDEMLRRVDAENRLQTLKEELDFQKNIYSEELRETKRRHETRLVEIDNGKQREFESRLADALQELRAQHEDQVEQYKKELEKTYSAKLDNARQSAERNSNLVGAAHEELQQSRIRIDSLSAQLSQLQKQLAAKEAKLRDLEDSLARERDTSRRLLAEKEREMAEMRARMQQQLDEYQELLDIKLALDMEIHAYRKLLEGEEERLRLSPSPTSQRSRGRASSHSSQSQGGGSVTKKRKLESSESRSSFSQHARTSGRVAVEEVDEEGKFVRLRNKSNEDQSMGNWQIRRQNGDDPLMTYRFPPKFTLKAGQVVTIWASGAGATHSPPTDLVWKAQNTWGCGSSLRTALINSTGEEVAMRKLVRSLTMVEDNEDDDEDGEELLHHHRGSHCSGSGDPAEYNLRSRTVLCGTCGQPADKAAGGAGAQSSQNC
The experiment in a line: Cellular thermal shift assay. Format: binding. The procedure: Vehicle .LM123L T-!=>(%C" V,!=> […]
50- !!!!!C#' -4TT8VLamin C -4T:T; (%$$-4-:?5T '()*+
!!!!!E#)*+,- ,V4:-β-Actin ,?4?V ,848; D(%
37- !!!!!*+,- 84;66L<-,V V4-;VL<-,? ?4T-?L<-,8 ,-)*+ […]
Supporting Figure S2. Ternary complex formation, progerin engagement and global selectivity of compound 2. […]
(C) Thermal denaturation curves of progerin in the presence of vehicle (black) or compound 2 at 10 µM (red, DTm=0.7±0.1 °C) or 25 µM (blue, […]
of compound 2 (IC50=7±1 µM). Curves are generated and fitted using sigmoidal dose-response non-linear regression curve fit in GraphPad Prism. Symbols and associated error bars (when not enclosed by the symbol) represent average±SD from two independent experiments carried out in duplicate. […]
(also on this page, place not known: >4000; Cpd2Cpd2 #)"$"C"#"*")*$*C ,V4:- 89:/1239 .0,;902<=:939:>=R?T !"#$#" (%$$ (%C" #)"$"C"#"*")*$*C -45665 -4TT8V ,V4:- 84;66L<-,V T-!=> ,?4?V V4-;VL<-,? -4-:?5T ,848; ?4T-?L<-,8 89:/1239 .0,;902<=:939:>=R?T FFFFFSB#T89: FFFFFSB#T89: FFFFFa+#-++GFB2FC-++CB$ FFFFFbFGF4D-+C FFFFF!4$FB2F!F4D-+G FFFFFiFB2FMF3DE4+G FFFFFiFkF3DE4+GFDLDEdl+C I9em:m rrr 9 :eosmX :e:snst o o Ise::::: I9e::::: :etpoooomX :esnnsmqmX :enst9mmqo :estm9XpoX Lamin β-Actin Progerin Relative progerin levelsin thesoluble fraction Relative levelsof denaturedprogerin [Cpd2, Relative progerin signal intensityvs IgG Cpd2 [Cpd2]=10 [Cpd2]=25 AbundanceRatio Veh Cpd2 -Log10 (p value)) […]
buffer containing 2.5% β-mercaptoethanol, and heated at 95 °C for 5 min prior to magnetic separation and loading of supernatants onto SDS -PAGE gels. Input lysates (~30 µg) were prepared in parallel as Western blot controls.
14. Cellular thermal shift assay.
Progeroid mouse fibroblasts (LmnaG609G/G609G) were seeded (2x10^6 cells) in 100 mm dishes 24 h before the experiment. Next day, cells were first washed with PBS and then incubated with the proteasome inhibitor (S)-MG132 (20 µM) for 2 h at 37 °C and 5%
CO2. Then, the cells were incubated with compound 2 at the corresponding concentration or with vehicle for 60 min at 37 °C and 5% CO2. Cells were then washed with PBS, detached by treatment with trypsin, and collected by centrifugation at 250g and 25 °C for 5 min, washed with PBS and resuspended in PBS in 0.2 mL microtubes. Then, homogenates or cells were transferred to PCR tubes and heat-shocked for 3 min at the appropriate temperature (37 to 61 °C) followed by rapid cooling to 25 °C using a SensoQuest LabCycler Thermocycler (Progen Scientific Ltd). Igepal CA-630 was then added to the samples (final concentration of 1 % v/v), and the samples were thoroughly mixed and denatured by three cycles of freezing/thawing (immersion in liquid nitrogen followed by fast thawing). […]

In the case of `CC1(C)Oc2cc3oc(=O)ccc3cc2C[C@@H]1OC(=O)CCCCCNc1cccc2c1C(=O)N(C1CCC(=O)NC1=O)C2=O` (stereo partly shown) [compound 2], the IC50 (CETSA, isothermal at 53 °C, Lmna^G609G/G609G fibroblasts, read-out: binding affinity by isothermal dose‐response fingerprint (IC50)) was 7 ± 1 µM. For the same compound, the “direct binding to progerin by cellular thermal shift assays” value (Lmna^G609G/G609G fibroblasts) is “direct binding between compound 2 and progerin”. Under “compound at 10 µM, read-out: DTm of progerin (thermal denaturation curve)”, the ΔTm at 10 µM was found to be 0.7 ± 0.1 °C. The ΔTm at 25 µM (compound at 25 µM, read-out: DTm of progerin (thermal denaturation curve)) turned out to be 2 ± 0.3 °C.
